Laboratory results taken from the METLIN SMRT retention time set (Domingo-Almenara et al. 2019).

Test: gradient 5% acetonitrile 3 min, to 50% in 2 min, to 85% in 15 min, held 3 min, 100 µL/min
Conditions: column: Zorbax Extend-C18 2.1 x 50 mm; eluents: water / acetonitrile, 0.1% formic acid
Procedure, shortened: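 Data were gathered over 3 months by HPLC coupled to a quadrupole time-of-flight mass spectrometer, operated in positive and negative ionization mode. Mixtures of ~100 pure standards ran on a Zorbax Extend-C18 column (2.1 × 50 mm, 1.8 μm) at 100 μL/min, with water and acetonitrile each containing 0.1% formic acid and dead and dwell volumes of 40 μL and 900 μL. Retention time was read from adduct peaks picked by computer and checked manually.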

RP-LC retention time	Structure (SMILES)
692 s	CCC1CCCCN1C(=O)c1cnc2nc(C)ccc2c1Nc1ccc(OC)cc1C (configuration not stated)
717 s	Cc1cc(=O)n(CC(=O)Nc2ccc(C)c(C)c2)c(N2CCCCC2)n1
749 s	CCOc1ccc(-c2noc(N3CCC(C(=O)NCC4CCCO4)CC3)n2)cc1OC (configuration not stated)
653 s	O=C([C@@H]1C[C@H](F)CN1C(=O)Nc1ccccc1)N1CCCCC1
847 s	CS(=O)(=O)Nc1ccc(C2(C(=O)NCc3ccc(F)cc3Cl)CCC2)cc1
1440 s	COC(=O)c1ccc2c(=O)n(-c3ccc(C)c(C)c3)c(N3CCC(C)CC3)nc2c1
787 s	Cc1cc(C)cc(C(=O)N2CCC3(CC2)NC(=O)c2cc(F)ccc2N3C)c1
613 s	O=C(NC1CCCCCC1)C1CCN(C(=O)C2Sc3ccccc3NC2=O)CC1 (configuration not stated)
886 s	Cc1nc(-c2csc(S(=O)(=O)N3CCC(C(=O)Nc4ccc(F)cc4C)CC3)c2)no1
561 s	CCCN1CCN(c2ccc(NC(=O)C3CCC3)c(C(=O)O)c2)CC1
627 s	O=C(NC1CCCCCC1)C1CCCN(C(=O)c2cc(-c3ccncc3)n[nH]2)C1 (configuration not stated)
609 s	O=C(NCc1ccccc1Cl)c1ccc(=O)n(CCN2CCOCC2)c1
1050 s	O=C(NC1CCCCC1)c1ccc(-c2csc(C3CC3)n2)cc1
565 s	O=C(C1CCCN1)N1CCC(OCc2nc(-c3ccncc3)no2)CC1 (configuration not stated)
836 s	CCn1c(=O)n(CC)c2cc(S(=O)(=O)c3ccc(OC)cc3)c(NC(=O)C(C)C)cc21
910 s	O=C(NCCC1CCN(S(=O)(=O)c2ccccc2)CC1)Nc1ccc(F)cc1F
610 s	CCN1CCCC1CN(CC(=O)N1CCNCC1)S(=O)(=O)c1ccc(CC(C)C)cc1 (configuration not stated)
840 s	Cn1nc(-c2nc(C3CC3)no2)c2c1CCN(C(=O)Nc1cccc(F)c1)C2
637 s	COC(=O)c1ccc(C(=O)NCC2CCN(S(C)(=O)=O)CC2)cc1
652 s	CCOc1ccc(S(=O)(=O)NC2CC(=O)N(C3CC3)C2)cc1 (configuration not stated)
806 s	Cc1ccc(NS(=O)(=O)c2cc(-c3[nH]ncc3C(=O)N3CCCCC3)oc2C)cc1F
674 s	CCOc1ccc(C2C(C(=O)N3CCCCC3)=C(C)NC3=C2C(=O)CCC3)cc1OC (configuration not stated)
670 s	CC1CCCCN1CCCNC(=O)Cn1ccc2cc(S(=O)(=O)N3CCCCC3)ccc21 (configuration not stated)
888 s	Cc1ccc2c(c1)N(C(=O)Cn1cnc3nc4c(cc3c1=O)CC(C)CC4)CCO2 (configuration not stated)
561 s	CCOc1ccccc1C(=O)NCC1CCN(Cc2ccccn2)CC1
750 s	CCSc1nnc(-c2nn(C)c3c2CN(C(=O)c2ccc(F)cc2)CC3)n1C

The remaining lines, values behind:

Structure (SMILES)	RP-LC retention time
O=C(c1ccc(-n2cccn2)nn1)N1CCN(C(=O)c2ccco2)CC1	611 s
Cc1cc(=O)n(CC(=O)Nc2cccc(C#N)c2)c(N2CCOCC2)n1	604 s
COc1ccc(C2Cn3nnc(-c4nc(-c5ccc(Br)cc5)no4)c3CO2)cc1 (configuration not stated)	1260 s
CNC(=O)[C@@H]1CN(C(=O)c2cncc(Br)c2)C[C@H]1COC	576 s
CCOC(=O)COC(=O)c1cn(-c2ccc(C)cc2)c(=O)c2ccccc12	718 s
COc1cccc(-n2cc(C(=O)OCc3ccccn3)c3ccccc3c2=O)c1	854 s
CN(C)CCNC(=O)C(C)(C)Oc1ccc(Cl)cc1	629 s
Cc1ccc(-c2nnc(-c3nn(C)c4c3CN(S(=O)(=O)c3ccccc3C)CC4)o2)cc1	1020 s
Cn1nc(-c2nnc(-c3ccc(F)cc3)o2)c2c1CCN(C(=O)Nc1ccccc1Cl)C2	892 s
COC(=O)c1c(NCCc2ccc(Cl)cc2)c2ccc(F)cc2[nH]c1=O	795 s
CCc1nn2c(CNC(=O)c3ccc(Br)cc3)c(-c3ccccc3)nc2s1	1010 s
COc1ccc(S(=O)(=O)Nc2nc(C(=O)Nc3cccc(Cl)c3)cs2)cc1	844 s
Cc1nc2cccnc2n1CCN1CCN(C(=O)Nc2ccccc2Cl)CC1	584 s
CC(C)(C)c1ccc(C(=O)NC2(c3nc(-c4ccccc4)no3)CCCCC2)cc1	1410 s
Cc1cnc2c(N)cc(C)c(C)c2c1	715 s
COc1cccc(-n2cc(C(=O)OCC(=O)OC(C)(C)C)c3ccccc3c2=O)c1	1140 s
CC(C)(C)c1csc(-c2csc(S(=O)(=O)NC3CCCCC3)c2)n1	1320 s
COc1ccc(-c2nc3ccc(Cl)cn3c2Nc2ccc(C)cc2)cc1	838 s
CCOC(=O)c1c(C)c(CCC(=O)NC(C)C)n(CC)c1C	821 s
CCCOc1ccc(C2NCCc3c2[nH]c2ccccc32)cc1OC (configuration not stated)	642 s
CCOc1ccc(N(CC)C(=O)C(=O)c2c[nH]c3ccccc23)cc1	852 s

Structure (SMILES)	RP-LC retention time
COc1ccc2[nH]cc(CCNC(=O)c3ccc(NC(=O)C4=CSCCO4)cc3)c2c1	800 s
O=C(Cn1cnc(-c2noc(-c3ccc(F)cc3)n2)c1)NC1CCCCC1	862 s
Cc1ccc(NC(=O)c2cn3c(n2)CCCC3)c(F)c1	720 s
COC(=O)C1=C(N)Oc2cc(C)n(CCN(C)C)c(=O)c2C1c1ccccc1F (configuration not stated)	616 s
O=C(NCC1CCS(=O)(=O)C1)c1cccnc1 (configuration not stated)	565 s
Cc1nn(CC(=O)NCCc2c[nH]c3ccc(Cl)cc23)c(=O)c2noc(C)c12	766 s
CCSc1nnc(NC(=O)CSc2nc3ccccc3o2)s1	832 s
Cc1nnc2cc(N3CCN(Cc4cn[nH]c4-c4cccs4)CC3)cnn12	543 s
Cc1ccc(C(=O)Nc2nc(-c3ccc4c(c3)N(C)C(=O)CO4)c(C)s2)cc1	1030 s
O=c1ccn(-c2cccc(F)c2)nc1-c1nc(-c2ccccc2F)no1	846 s
Cc1ccc(NC(=O)c2sc(-n3cccc3)nc2C(C)C)cc1F	1320 s
Cc1cc(OCC(=O)Nc2ccc(Br)cc2F)nc(N2CCCCC2)n1	666 s
COc1cc(C)c(S(=O)(=O)Nc2ccc(-c3cn4ccc(C)nc4n3)cc2)cc1C	683 s
Cc1cc(-c2cc(S(=O)(=O)NCc3ccccc3Cl)c(C)s2)n[nH]1	847 s
Cc1cc(C)n2nc(SCC(=O)NC3CCCC(C)C3C)nc2n1 (configuration not stated)	776 s
CC(C)CNC(=O)c1cn(-c2ccc(-c3nc(C4CC4)no3)cn2)cn1	1110 s
O=C(Nc1ccc2c(c1)C(=O)NC2=O)c1cccc([N+](=O)[O-])c1	696 s
Cc1nc(CN2CC(c3nc(-c4cccs4)no3)C2)cs1	568 s
COc1cccc(-c2csc(Nc3cc(C)ccn3)n2)c1	810 s
COc1ccc(OC)c(NC(=O)N2CCC3(CC2)N=C(c2ccc(F)cc2)C(=O)N3)c1	838 s
